From ChEMBL document CHEMBL5385964, “1,5-Disubstituted tetrazoles as PD-1/PD-L1 antagonists” (RSC Med Chem, 2024) come the findings set out here.

The source made the active and inactive calls. The calls are words filed in the database; no cut-off is given here.

Programmed cell death 1 ligand 1 (Homo sapiens), sequence (Q9NZQ7 whole entry): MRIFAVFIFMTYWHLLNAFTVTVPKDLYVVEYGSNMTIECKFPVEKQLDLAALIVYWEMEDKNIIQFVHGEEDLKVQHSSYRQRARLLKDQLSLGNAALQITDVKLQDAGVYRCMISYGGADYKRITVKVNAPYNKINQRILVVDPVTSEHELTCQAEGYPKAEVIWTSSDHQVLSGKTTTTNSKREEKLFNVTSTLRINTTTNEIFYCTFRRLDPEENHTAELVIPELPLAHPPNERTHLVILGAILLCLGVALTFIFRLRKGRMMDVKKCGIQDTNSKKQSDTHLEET

One experiment concerns the target Programmed cell death 1 ligand 1 (Homo sapiens) (UniProt Q9NZQ7). Briefly: Induction of human PD-L1 dimerization at 1:1 molar ratio of protein:compound by 1H NMR analysis.
Consider `Cc1c(/C=C/n2nnnc2CN2CCCOC2)cccc1-c1ccccc1`, for which the outcome was Active.

As to `CCNCc1nnnn1/C=C/c1cccc(-c2ccccc2)c1C`, the outcome was Active. Still for that read-out and setting: the value for `Cc1c(/C=C/n2nnnc2C(C)NCCCO)cccc1-c1ccc2c(c1)OCCO2` (stereo unspecified) was “Active”.

The target of a further experiment is Programmed cell death protein 1/Programmed cell death 1 ligand 1 (Homo sapiens, UniProt Q15116+Q9NZQ7). Briefly: Antagonist activity at PD-1/PD-L1 interaction (unknown origin). Type of experiment: protein-complex assay.
Programmed cell death protein 1/Programmed cell death 1 ligand 1, sequence (Q15116 whole entry): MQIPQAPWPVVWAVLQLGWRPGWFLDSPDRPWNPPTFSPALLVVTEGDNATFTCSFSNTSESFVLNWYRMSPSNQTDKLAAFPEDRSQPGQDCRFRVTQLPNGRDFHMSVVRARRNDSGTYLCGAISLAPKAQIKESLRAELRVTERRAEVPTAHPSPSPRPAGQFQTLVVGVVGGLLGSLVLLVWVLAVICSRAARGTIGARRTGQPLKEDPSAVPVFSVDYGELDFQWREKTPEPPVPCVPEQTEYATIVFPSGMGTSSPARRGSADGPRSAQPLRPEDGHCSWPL
Programmed cell death protein 1/Programmed cell death 1 ligand 1, sequence (Q9NZQ7 whole entry): as the sequence (Q9NZQ7 whole entry) above
In general, IC50 refers to the point on the concentration scale where inhibition reaches its midpoint. High values mean lower potency, low ones higher potency. In the case of `Cc1c(/C=C/c2cc(CN[C@@H](CO)C(=O)O)ccc2C(F)(F)F)cccc1-c1ccc2c(c1)OCCO2`, the IC50 turned out to be 13 nM. For the molecule `COCCNCc1ccc(C(F)(F)F)c(/C=C/c2cccc(-c3cccc(/C=C/c4cc(CN[C@@](C)(CO)C(=O)O)ccc4C(F)(F)F)c3C)c2Cl)c1`, the concentration for half-maximal inhibition (IC50) came to 2.3 nM. For the molecule `COc1cc(/C=C2\CCc3c2cccc3-c2cccc3c2CC/C3=C\c2cc(CN[C@H](CO)C(=O)O)cc(OC)c2)cc(CN[C@@H](CO)C(=O)O)c1`, the IC50 worked out at 2.9 nM.
